Laboratory results from patent publication US11299480B2, “2-arylsulfonamido-N-arylacetamide derivatized STAT3 inhibitors” (University of Hawaii, priority 2017, dated 2022).

How the values were obtained:
Type in all cases: cell-based, human
Details in all cases: MDA-MB-231, 5 μM, 24 h treatment
[1] = tested on: pERK1/2; test: Stat3-independent signaling, immunoblot of pERK1/2, MDA-MB-231 cells
Excerpt: (§1) FIG. 4. Effects of select compounds of the present invention on Stat3-independent signal transduction events. […] Positions of proteins in gel are labeled; control lane (Con) represents whole-cell lysate prepared from 0.05% DMSO-treated cells.
(§2) All antibodies tested were purchased from Cell Signaling Technology.
(§3) Altogether, the new analogs show strong, albeit variable degrees of inhibition of constitutive Stat3 DNA-binding activity and Tyr phosphorylation in human tumor cells.

[2] = tested on: pJak2; test: Stat3-independent signaling, immunoblot of pJak2, MDA-MB-231 cells
Excerpt: as §1, §2, §3

[3] = tested on: pSrc; test: Stat3-independent signaling, immunoblot of pSrc, MDA-MB-231 cells
Excerpt: as §1, §2, §3

C[C@H](C(=O)N(Cc1ccc(C2CCCCC2)cc1)c1ccc(C(=O)O)cc1Cl)N(C)S(=O)(=O)c1c(F)c(F)c(F)c(F)c1F [Example 40, (R)-3-chloro-4-(N-(4-cyclohexylbenzyl)-2-((2,3,4,5,6-pentafluoro-N-methylphenyl)sulfonamido)propanamido)benzoic acid]
little effect: effect on pERK1/2 [1] | effect on pJak2 [2] | effect on pSrc [3]
